From patent US20240383904A1, “HETEROCYCLIC COMPOUNDS” (Hoffmann-La Roche Inc., priority 2021, published 2024)

molecular target: T1, MAGL (Homo sapiens, UniProt Q99685); experiment: 2-AG assay: MAGL inhibitory activity by hydrolysis of 2-arachidonoylglycerol to arachidonic acid, followed by mass spectrometry; assay type: biochemical; details: 15 min preincubation, 30 min reaction at RT, 8 μM 2-arachidonoylglycerol
T1 sequence (Q99685 1-303): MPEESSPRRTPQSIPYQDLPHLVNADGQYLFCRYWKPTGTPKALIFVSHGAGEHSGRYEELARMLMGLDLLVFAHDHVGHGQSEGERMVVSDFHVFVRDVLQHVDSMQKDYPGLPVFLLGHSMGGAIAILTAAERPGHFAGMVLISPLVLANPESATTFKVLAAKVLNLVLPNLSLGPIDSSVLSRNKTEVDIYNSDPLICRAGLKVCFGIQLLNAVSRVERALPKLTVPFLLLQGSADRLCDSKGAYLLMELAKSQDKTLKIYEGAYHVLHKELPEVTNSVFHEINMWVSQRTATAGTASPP
Excerpt: Compounds of formula (I) were profiled for MAGL inhibitory activity by determining the enzymatic activity by following the hydrolysis of the natural substrate 2-arachidonoylglycerol (2-AG) resulting in arachidonic acid, which can be followed by mass spectrometry. This assay is hereinafter abbreviated “2-AG assay”.
Compounds of formula (I) were profiled for MAGL inhibitory activity by determining the enzymatic activity by following the hydrolysis of the natural substrate 2-arachidonoylglycerol (2-AG) resulting in arachidonic acid, which can be followed by mass spectrometry. This assay is hereinafter abbreviated “2-AG assay”. The 2-AG assay was carried out in 384 well polypropylene assay plates. Compound dilutions were made in 100% DMSO in a polypropylene plate in 3-fold dilution steps to give a final concentration range in the assay from 12.5 μM to […]. Compound dilutions were added to MAGL protein in assay buffer (50 mM TRIS, 1 mM EDTA, 0.01% (v/v) Tween-20, 2.5% (v/v) DMSO). After shaking, the plate was incubated for 15 min at RT. To start the reaction, 2-arachidonoylglycerol in assay buffer was added. The final concentrations in the assay was […] for MAGL protein and 8 μM 2-arachidonoylglyerol. After shaking and 30 min incubation at RT, the reaction was quenched by the addition of two assay volumes of acetonitrile containing 4 μM of d8-arachidonic acid. The amount of arachidonic acid formed was traced by an online SPE system (Agilent Rapidfire) coupled to a triple quadrupole mass spectrometer. A C18 SPE cartridge (Agilent G9205A) was used in an acetonitrile/water liquid setup. The mass spectrometer was operated in negative electrospray mode following the mass transitions 303.1→259.1 for arachidonic acid and 311.1→267.0 for d8-arachidonic acid. The activity of the compounds was calculated based on the ratio of intensities [arachidonic acid/d 8-arachidonic acid].

Structure (SMILES)	IC50
O=C1NC2(CO1)CN(C(=O)N1CC3(CN(Cc4cc(F)cc(F)c4)C3)C1)C2 [Example 153, 2-[6-(3,5-difluorobenzyl)-2,6-diazaspiro[3.3]heptane-2-carbonyl]-7-oxa-2,5-diazaspiro[3.4]octan-6-one]	4.75 nM
O=C1COCC2(CN(C(=O)N3CC4(CC(Cc5ccc(C(F)(F)F)cc5F)C4)C3)C2)N1 [Example 145]	0.06 nM
CS(=O)(=O)c1cccc(CN2CC3(C2)CN(C(=O)N2CC4(COC(=O)N4)C2)C3)c1 [Example 187, 2-[6-[(3-methylsulfonylphenyl)methyl]-2,6-diazaspiro[3.3]heptane-2-carbonyl]-7-oxa-2,5-diazaspiro[3.4]octan-6-one]	46.7 nM
O=C1NC2(CO1)CN(C(=O)N1CC3(CCN(S(=O)(=O)C45CC(C(F)(F)F)(C4)C5)CC3)C1)C2 [Example 204, 2-[7-[[3-(trifluoromethyl)-1-bicyclo[1.1.1]pentanyl]sulfonyl]-2,7-diazaspiro[3.5]nonane-2-carbonyl]-7-oxa-2,5-diazaspiro[3.4]octan-6-one]	11.8 nM
O=C1NC2(CO1)CN(C(=O)N1CC3(CCC(Cc4ncc(F)cc4F)C3)C1)C2 (stereo not shown) [Example 103, 2-[6-[(3,5-difluoro-2-pyridyl)methyl]-2-azaspiro[3.4]octane-2-carbonyl]-7-oxa-2,5-diazaspiro[3.4]octan-6-one]	0.28 nM
O=C1COCC2(CN(C(=O)N3CC4(CCN(Cc5cccc(S(=O)(=O)C(F)(F)F)c5)CC4)C3)C2)N1 [Example 134, 2-[7-(3-triflylbenzyl)-2,7-diazaspiro[3.5]nonane-2-carbonyl]-8-oxa-2,5-diazaspiro[3.5]nonan-6-one]	19.1 nM
O=C1NC2(CO1)CN(C(=O)N1CC3(CN(Cc4ccc(C(F)(F)F)nn4)C3)C1)C2 [Example 159, 2-[6-[[6-(trifluoromethyl)pyrida-zin-3-yl]methyl]-2,6-diazaspiro[3.3]heptane-2-carbonyl]-7-oxa-2,5-diazaspiro[3.4]octan-6-one]	109 nM
CS(=O)(=O)c1ccc(C[C@H]2CCC3(C2)CN(C(=O)N2CC4(COCC(=O)N4)C2)C3)cc1 (single isomer, unassigned) [Example 74]	77.7 nM
O=C1CCC2(CN(C(=O)N3CC4(CN(Cc5ccc(S(=O)(=O)C(F)(F)F)cc5F)C4)C3)C2)N1 [Example 258, 2-[6-[[2-fluoro-4-(trifluoromethylsulfonyl)phenyl]methyl]-2,6-diazaspiro[3.4]heptane-2-carbonyl]-2,5-diazaspiro[3.4]octan-6-one]	18.6 nM
CS(=O)(=O)c1cc(CC2CC3(C2)CN(C(=O)N2CC4(COC(=O)N4)C2)C3)ccc1C(F)(F)F [Example 29, 2-[6-[3-mesyl-4-(trifluoromethyl)benzyl]-2-azaspiro[3.3]heptane-2-carbonyl]-7-oxa-2,5-diazaspiro[3.4]octan-6-one]	0.34 nM
O=C1CCC2(CN(C(=O)N3CC4(CCC(Cc5ccc(OC(F)F)nc5)CC4)C3)C2)N1 [Example 121, 2-[7-[[6-(difluoromethoxy)-3-pyridyl]methyl]-2-azaspiro[3.5]nonane-2-carbonyl]-2,5-diazaspiro[3.4]octan-6-one]	4.19 nM
N#Cc1cc(C(F)(F)F)ncc1C[C@H]1CCC2(C1)CN(C(=O)N1CC3(COC(=O)N3)C1)C2 [Example 212, 5-[[(6S)-2-(6-oxo-7-oxa-2,5-diazaspiro[3.4]octane-2-carbonyl)-2-azaspiro[3.4]octan-6-yl]methyl]-2-(trifluoromethyl)pyridine-4-carbonitrile]	0.46 nM
O=C1COCC2(CN(C(=O)N3CC4(CCN(Cc5ccc(S(=O)(=O)C(F)(F)F)cc5)CC4)C3)C2)N1 [Example 83, 2-[7-(4-triflylbenzyl)-2,7-diazaspiro[3.5]nonane-2-carbonyl]-8-oxa-2,5-diazaspiro[3.5]nonan-6-one]	24.2 nM
N#Cc1cc(C(F)(F)F)ncc1CC1CCC2(C1)CN(C(=O)N1CC3(COC(=O)N3)C1)C2 (stereo not shown) [Example 210, 5-[[2-(6-oxo-7-oxa-2,5-diazaspiro[3.4]octane-2-carbonyl)-2-azaspiro[3.4]octan-6-yl]methyl]-2-(trifluoromethyl)pyridine-4-carbonitrile]	0.84 nM

The remaining lines, values ahead:

IC50	Structure (SMILES)
59 nM	O=C1COCC2(CN(C(=O)N3CC4(CC(Cn5cc(C(F)(F)F)cn5)C4)C3)C2)N1 [Example 230, 2-[6-[[4-(trifluoromethyl)pyrazol-1-yl]methyl]-2-azaspiro[3.3]heptane-2-carbonyl]-8-oxa-2,5-diazaspiro[3.5]nonan-6-one]
183 nM	O=C1CCCC2(CN(C(=O)N3CC4(CC(Cc5ccc(S(=O)(=O)C(F)(F)F)cn5)C4)C3)C2)N1 [Example 263, 2-[6-[[5-(trifluoromethylsulfonyl)-2-pyridyl]methyl]-2-azaspiro[3.3]heptane-2-carbonyl]-2,5-diazaspiro[3.5]nonan-6-one]
45.6 nM	N=[S@@](=O)(c1cccc(CC2CC3(C2)CN(C(=O)N2CC4(CCCC(=O)N4)C2)C3)c1)C(F)(F)F [Example 290, 2-[6-[[3-(trifluoromethylsulfoni-midoyl)phenyl]methyl]-2-azaspiro[3.3]heptane-2-carbonyl]-2,5-diazaspiro[3.5]nonan-6-one]
473 nM	O=C1CCCC2(CN(C(=O)N3CC4(CC(Cc5ccc(S(=O)(=O)C6CC6)cc5)C4)C3)C2)N1 [Example 269, 2-[6-[(4-cyclopropylsulfonylphe-nyl)methyl]-2-azaspiro[3.3]heptane-2-carbonyl]-2,5-diazaspiro[3.5]nonan-6-one]
18.4 nM	O=C1COCC2(CN(C(=O)N3CC4(CC(c5ccc(C(F)(F)F)cc5F)C4)C3)C2)N1 [Example 228]
230 nM	O=C1COCC2(CN(C(=O)N3CC4(CC(Cc5cnc(C(F)(F)F)nc5)C4)C3)C2)N1 [Example 232, 2-[6-[[2-(trifluoromethyl)pyrimi-din-5-yl]methyl]-2-azaspiro[3.3]heptane-2-carbonyl]-8-oxa-2,5-diazaspiro[3.5]nonan-6-one]
0.96 nM	O=C1CCC2(CN(C(=O)N3CC4(CC[C@H](Cc5cccc(S(=O)(=O)C(F)(F)F)c5)C4)C3)C2)N1 [Example 223, 2-[(6R)-6-[[3-(trifluoromethylsulfonyl)phenyl]methyl]-2-azaspiro[3.4]octane-2-carbonyl]-2,5-diazaspiro[3.4]octan-6-one]
47.4 nM	O=C1CCC2(CN(C(=O)N3CC4(CC(Cn5ncc(C(F)(F)F)n5)C4)C3)C2)N1 [Example 300, 2-[6-[[4-(trifluoromethyl)triazol-2-yl]methyl]-2-azaspiro[3.3]heptane-2-carbonyl]-2,5-diazaspiro[3.4]octan-6-one]
6.53 nM	Cc1cc(C(F)(F)F)nn1CC1CC2(C1)CN(C(=O)N1CC3(CCC(=O)N3)C1)C2 [Example 326, 2-[6-[[5-methyl-3-(trifluoromethyl)pyrazol-1-yl]methyl]-2-azaspiro[3.3]heptane-2-carbonyl]-2,5-diazaspiro[3.4]octan-6-one]
1030 nM	O=C1CCCC2(CN(C(=O)N3CC4(CC(Cc5cc(C(F)F)n[nH]5)C4)C3)C2)N1 [Example 279, 2-[6-[[3-(difluoromethyl)-1H-pyrazol-5-yl]methyl]-2-azaspiro[3.3]heptane-2-carbonyl]-2,5-diazaspiro[3.5]nonan-6-one]
255 nM	O=C1COCC2(CN(C(=O)N3CC4(CC(Cc5ccc(C(F)(F)F)nn5)C4)C3)C2)N1 [Example 231, 2-[6-[[6-(trifluoromethyl)pyrida-zin-3-yl]methyl]-2-azaspiro[3.3]heptane-2-carbonyl]-8-oxa-2,5-diazaspiro[3.5]nonan-6-one]
8.19 nM	Cc1cc(C(F)F)nn1CC1CC2(C1)CN(C(=O)N1CC3(CCC(=O)N3)C1)C2 [Example 347, 2-[6-[[3-(difluoromethyl)-5-methyl-pyrazol-1-yl]methyl]-2-azaspiro[3.3]heptane-2-carbonyl]-2,5-diazaspiro[3.4]octan-6-one]
88.7 nM	CC(C)(C)c1coc(CN2CC3(C2)CN(C(=O)N2CC4(CCC(=O)N4)C2)C3)n1 [Example 374, 2-[6-[(4-tert-butyloxazol-2-yl)methyl]-2,6-diazaspiro[3.3]heptane-2-carbonyl]-2,5-diazaspiro[3.4]octan-6-one]
52.8 nM	O=C1COCC2(CN(C(=O)N3CC4(CC(Cn5ccc(C(F)(F)F)n5)C4)C3)C2)N1 [Example 239, 2-[6-[[3-(trifluoromethyl)pyrazol-1-yl]methyl]-2-azaspiro[3.3]heptane-2-carbonyl]-8-oxa-2,5-diazaspiro[3.5]nonan-6-one]
